≈ marks a conversion by molar mass, not a printed value.
Tests used:
Type in all cases: functional
[1] = test system: Enterococcus faecium; experiment: Antimicrobial activity against Enterococcus faecium expressing VanB gene clinical isolates assessed as resistant isolates by broth microdilution method
[2] = test system: Enterococcus faecium; experiment: Antimicrobial activity against Enterococcus faecium clinical isolates assessed as percent susceptible isolates by broth microdilution method
[3] = test system: Enterococcus faecium; experiment: Antimicrobial activity against Enterococcus faecium clinical isolates assessed as resistant isolates by broth microdilution method
[4] = test system: Enterococcus faecium; experiment: Antimicrobial activity against Enterococcus faecium expressing VanB gene clinical isolates by broth microdilution method
[5] = test system: Enterococcus faecalis; experiment: Antimicrobial activity against vancomycin-nonsusceptible Enterococcus faecalis clinical isolates assessed as resistant isolates by broth microdilution method
[6] = test system: Enterococcus faecalis; experiment: Antimicrobial activity against Enterococcus faecalis expressing VanB gene clinical isolates assessed as percent susceptible isolates by broth microdilution method
[7] = test system: Enterococcus faecium; experiment: Antimicrobial activity against Enterococcus faecium expressing VanA gene clinical isolates by broth microdilution method
[8] = test system: Enterococcus faecalis; experiment: Antimicrobial activity against Enterococcus faecalis expressing VanB gene clinical isolates by broth microdilution method
[9] = test system: Enterococcus faecium; experiment: Antimicrobial activity against Enterococcus faecium expressing VanA gene clinical isolates assessed as resistant isolates by broth microdilution method
[10] = test system: Enterococcus faecium; experiment: Antimicrobial activity against vancomycin-nonsusceptible Enterococcus faecium clinical isolates by broth microdilution method
[11] = test system: Enterococcus faecalis; experiment: Antimicrobial activity against vancomycin-susceptible Enterococcus faecalis clinical isolates assessed as resistant isolates by broth microdilution method
[12] = test system: Enterococcus faecalis; experiment: Antimicrobial activity against Enterococcus faecalis expressing VanA gene clinical isolates assessed as resistant isolates by broth microdilution method
[13] = test system: Enterococcus faecium; experiment: Antimicrobial activity against vancomycin-susceptible Enterococcus faecium clinical isolates by broth microdilution method
[14] = test system: Enterococcus faecalis; experiment: Antimicrobial activity against Enterococcus faecalis expressing VanA gene clinical isolates assessed as percent susceptible isolates by broth microdilution method
[15] = test system: Enterococcus faecium; experiment: Antimicrobial activity against Enterococcus faecium clinical isolates by broth microdilution method
[16] = test system: Enterococcus faecium; experiment: Antimicrobial activity against vancomycin-susceptible Enterococcus faecium clinical isolates assessed as resistant isolates by broth microdilution method
[17] = test system: Enterococcus faecalis; experiment: Antimicrobial activity against Enterococcus faecalis clinical isolates by broth microdilution method
[18] = test system: Enterococcus faecalis; experiment: Antimicrobial activity against Enterococcus faecalis expressing VanA gene clinical isolates by broth microdilution method
[19] = test system: Enterococcus faecalis; experiment: Antimicrobial activity against Enterococcus faecalis clinical isolates assessed as percent susceptible isolates by broth microdilution method
[20] = test system: Enterococcus faecalis; experiment: Antimicrobial activity against Enterococcus faecalis clinical isolates assessed as resistant isolates by broth microdilution method
[21] = test system: Enterococcus faecalis; experiment: Antimicrobial activity against vancomycin-susceptible Enterococcus faecalis clinical isolates by broth microdilution method
[22] = test system: Enterococcus faecium; experiment: Antimicrobial activity against vancomycin-nonsusceptible Enterococcus faecium clinical isolates assessed as resistant isolates by broth microdilution method
[23] = test system: Enterococcus faecalis; experiment: Antimicrobial activity against vancomycin-nonsusceptible Enterococcus faecalis clinical isolates assessed as percent susceptible isolates by broth microdilution method
[24] = test system: Enterococcus faecium; experiment: Antimicrobial activity against Enterococcus faecium expressing VanB gene clinical isolates assessed as percent susceptible isolates by broth microdilution method
[25] = test system: Enterococcus faecium; experiment: Antimicrobial activity against vancomycin-susceptible Enterococcus faecium clinical isolates assessed as percent susceptible isolates by broth microdilution method
[26] = test system: Enterococcus faecalis; experiment: Antimicrobial activity against Enterococcus faecalis expressing VanB gene clinical isolates assessed as resistant isolates by broth microdilution method
[27] = test system: Enterococcus faecium; experiment: Antimicrobial activity against vancomycin-nonsusceptible Enterococcus faecium clinical isolates assessed as percent susceptible isolates by broth microdilution method
[28] = test system: Enterococcus faecium; experiment: Antimicrobial activity against Enterococcus faecium expressing VanA gene clinical isolates assessed as percent susceptible isolates by broth microdilution method
[29] = test system: Enterococcus faecalis; experiment: Antimicrobial activity against vancomycin-susceptible Enterococcus faecalis clinical isolates assessed as percent susceptible isolates by broth microdilution method
[30] = test system: Enterococcus faecalis; experiment: Antimicrobial activity against vancomycin-nonsusceptible Enterococcus faecalis clinical isolates by broth microdilution method
[31] = test system: Streptococcus pneumoniae; experiment: Antimicrobial activity against penicillin-resistant Streptococcus pneumoniae clinical isolates assessed as percent susceptible isolates by broth microdilution method
[32] = test system: Streptococcus pneumoniae; experiment: Antimicrobial activity against penicillin-susceptible Streptococcus pneumoniae clinical isolates assessed as resistant isolates by broth microdilution method
[33] = test system: Streptococcus pneumoniae; experiment: Antimicrobial activity against penicillin-intermediate Streptococcus pneumoniae clinical isolates by broth microdilution method
[34] = test system: Streptococcus pneumoniae; experiment: Antimicrobial activity against Streptococcus pneumoniae clinical isolates assessed as resistant isolates by broth microdilution method
[35] = test system: Streptococcus pneumoniae; experiment: Antimicrobial activity against Streptococcus pneumoniae clinical isolates by broth microdilution method
[36] = test system: Streptococcus pneumoniae; experiment: Antimicrobial activity against penicillin-resistant Streptococcus pneumoniae clinical isolates assessed as resistant isolates by broth microdilution method
[37] = test system: Streptococcus pneumoniae; experiment: Antimicrobial activity against penicillin-susceptible Streptococcus pneumoniae clinical isolates assessed as percent susceptible isolates by broth microdilution method
[38] = test system: Streptococcus pneumoniae; experiment: Antimicrobial activity against penicillin-susceptible Streptococcus pneumoniae clinical isolates by broth microdilution method
[39] = test system: Streptococcus pneumoniae; experiment: Antimicrobial activity against penicillin-resistant Streptococcus pneumoniae clinical isolates by broth microdilution method
[40] = test system: Streptococcus pneumoniae; experiment: Antimicrobial activity against penicillin-intermediate Streptococcus pneumoniae clinical isolates assessed as percent susceptible isolates by broth microdilution method
[41] = test system: Streptococcus pneumoniae; experiment: Antimicrobial activity against penicillin-intermediate Streptococcus pneumoniae clinical isolates assessed as resistant isolates by broth microdilution method
[42] = test system: Streptococcus pneumoniae; experiment: Antimicrobial activity against Streptococcus pneumoniae clinical isolates assessed as percent susceptible isolates by broth microdilution method

With `CC1(C)S[C@@H]2[C@H](NC(=O)[C@H](N)c3ccccc3)C(=O)N2[C@H]1C(=O)O` [AMPICILLIN] the Activity [1] was 96.6%, the Activity [2] was 12.7% and the Activity [3] was 87.3%. For the same molecule, the MIC90 [4] was greater than 256 µg/mL, the Activity [5] was 0% and the Activity [6] was 100%. The MIC90 [7] was greater than 256 µg/mL, the MIC90 [8] was 2 µg/mL (≈ 5.72 µM) and the Activity [9] was 99%. For the same molecule, the MIC90 [10] was greater than 256 µg/mL, the Activity [11] was 0.1% and the Activity [12] was 0%. The MIC90 [13] was 256 µg/mL (≈ 733 µM), the Activity [14] was 100% and the MIC90 [15] was greater than 256 µg/mL. For the same molecule, the Activity [16] was 72.3%, the MIC90 [17] was 1 µg/mL (≈ 2.86 µM) and the MIC90 [18] was 2 µg/mL (≈ 5.72 µM). The Activity [19] was 99.9%, the Activity [20] was 0.1% and the MIC90 [21] was 1 µg/mL (≈ 2.86 µM). The Activity [22] was 98.5%, the Activity [23] was 100% and the Activity [24] was 3.4%. The Activity [25] was 27.7%, the Activity [26] was 0% and the Activity [27] was 1.5%. It also gave an Activity [28] of 1%, an Activity [29] of 99.9% and an MIC90 [30] of 2 µg/mL (≈ 5.72 µM).
`CO/N=C(\C(=O)N[C@@H]1C(=O)N2C(C(=O)O)=C(CSc3nc(=O)c(O)nn3C)CS[C@H]12)c1csc(N)n1` [CEFTRIAXONE] was tested, and the Activity [31] was 80.4%, the “Percent of isolates resistant” value [32] was 0% and the MIC90 [33] was 0.5 µg/mL (≈ 0.902 µM). For the same molecule, the Resistant isolates [34] was 1.2%, the MIC90 [35] was 1 µg/mL (≈ 1.8 µM) and the “Percent of isolates resistant” value [36] was 7.4%. For the same molecule, the Activity [37] was 100%, the MIC90 [38] was 0.03 µg/mL (≈ 0.0541 µM) and the MIC90 [39] was 2 µg/mL (≈ 3.61 µM). The Activity [40] was 99.5%, the “Percent of isolates resistant” value [41] was 0.5% and the Activity [42] was 97%.
With `CO/N=C(\C(=O)N[C@@H]1C(=O)N2C(C(=O)OC(C)OC(C)=O)=C(COC(N)=O)CS[C@H]12)c1ccco1` (stereo partly specified) [CEFUROXIME AXETIL] the Activity [31] was 0%, the “Percent of isolates resistant” value [32] was 0% and the MIC90 [33] was 4 µg/mL (≈ 7.84 µM). For the same molecule, the Resistant isolates [34] was 18.9%, the MIC90 [35] was 4 µg/mL (≈ 7.84 µM) and the “Percent of isolates resistant” value [36] was 99.3%. It also gave an Activity [37] of 100%, an MIC [38] of no more than 0.12 µg/mL and an MIC90 [38] of no more than 0.12 µg/mL. The MIC90 [39] was greater than 4 µg/mL, the Activity [40] was 56% and the “Percent of isolates resistant” value [41] was 20.4%. For the same molecule, the Activity [42] was 75.9%.
`CN[C@@H]1[C@H](O[C@H]2[C@H](O[C@H]3[C@H](O)[C@@H](O)[C@H](N=C(N)N)[C@@H](O)[C@@H]3N=C(N)N)O[C@@H](C)[C@]2(O)C=O)O[C@@H](CO)[C@H](O)[C@H]1O` [STREPTOMYCIN] gave an Activity [1] of 65.5%, an Activity [2] of 44.8% and an Activity [3] of 55.2%. It also gave an MIC [4] of no less than 1000 µg/mL, an MIC90 [4] greater than 1000 µg/mL and an Activity [5] of 51.7%. For the same molecule, the Activity [6] was 41.2%, the MIC [7] was no less than 1000 µg/mL and the MIC90 [7] was greater than 1000 µg/mL. It also gave an MIC [8] of no less than 1000 µg/mL, an MIC90 [8] greater than 1000 µg/mL and an Activity [9] of 63.9%. For the same molecule, the MIC [10] was no less than 1000 µg/mL, the MIC90 [10] was greater than 1000 µg/mL and the Activity [11] was 28.7%. The Activity [12] was 50.8%, the MIC [13] was no less than 1000 µg/mL and the MIC90 [13] was greater than 1000 µg/mL. The Activity [14] was 49.2%, the MIC [15] was no less than 1000 µg/mL and the MIC90 [15] was greater than 1000 µg/mL. The Activity [16] was 44%, the MIC [17] was no less than 1000 µg/mL and the MIC90 [17] was greater than 1000 µg/mL. The MIC [18] was no less than 1000 µg/mL, the MIC90 [18] was greater than 1000 µg/mL and the Activity [19] was 70.1%. The Activity [20] was 29.9%, the MIC [21] was no less than 1000 µg/mL and the MIC90 [21] was greater than 1000 µg/mL. For the same molecule, the Activity [22] was 63.5%, the Activity [23] was 48.3% and the Activity [24] was 34.5%. For the same molecule, the Activity [25] was 56%, the Activity [26] was 58.8% and the Activity [27] was 36.5%. It also gave an Activity [28] of 36.1%, an Activity [29] of 71.3% and an MIC [30] of no less than 1000 µg/mL. The MIC90 [30] was greater than 1000 µg/mL.
`CC[C@H]1OC(=O)[C@H](C)C(=O)[C@H](C)[C@@H](O[C@@H]2O[C@H](C)C[C@H](N(C)C)[C@H]2O)[C@](C)(OC)C[C@@H](C)C(=O)[C@H](C)[C@H]2N(CCCCn3cnc(-c4cccnc4)c3)C(=O)O[C@]12C` [TELITHROMYCIN] was tested, and the “Percent of isolates resistant” value [32] was 0%, the MIC90 [33] was 0.25 µg/mL (≈ 0.308 µM) and the Resistant isolates [34] was 0%. For the same molecule, the MIC90 [35] was 0.25 µg/mL (≈ 0.308 µM), the “Percent of isolates resistant” value [36] was 0% and the Activity [37] was 100%. It also gave an MIC90 [38] of 0.015 µg/mL (≈ 0.0185 µM), an MIC90 [39] of 0.5 µg/mL (≈ 0.616 µM) and an Activity [40] of 100%. The “Percent of isolates resistant” value [41] was 0% and the Activity [42] was 100%.
For GENTAMICIN, the Activity [1] was 24.1%, the Activity [2] was 68.3% and the Activity [3] was 31.7%. It also gave an MIC [4] greater than 500 µg/mL, an MIC90 [4] greater than 500 µg/mL and an Activity [5] of 80.5%. For the same molecule, the Activity [6] was 29.4%, the MIC [7] was greater than 500 µg/mL and the MIC90 [7] was greater than 500 µg/mL. It also gave an MIC [8] greater than 500 µg/mL, an MIC90 [8] greater than 500 µg/mL and an Activity [9] of 37.1%. For the same molecule, the MIC [10] was greater than 500 µg/mL, the MIC90 [10] was greater than 500 µg/mL and the Activity [11] was 32.2%. For the same molecule, the Activity [12] was 83.1%, the MIC [13] was greater than 500 µg/mL and the MIC90 [13] was greater than 500 µg/mL. The Activity [14] was 16.9%, the MIC [15] was greater than 500 µg/mL and the MIC90 [15] was greater than 500 µg/mL. For the same molecule, the Activity [16] was 25.1%, the MIC [17] was greater than 500 µg/mL and the MIC90 [17] was greater than 500 µg/mL. It also gave an MIC [18] greater than 500 µg/mL, an MIC90 [18] greater than 500 µg/mL and an Activity [19] of 65.4%. For the same molecule, the Activity [20] was 34.6%, the MIC [21] was greater than 500 µg/mL and the MIC90 [21] was greater than 500 µg/mL. It also gave an Activity [22] of 36.7%, an Activity [23] of 19.5% and an Activity [24] of 75.9%. It also gave an Activity [25] of 74.9%, an Activity [26] of 70.6% and an Activity [27] of 63.3%. It also gave an Activity [28] of 62.9%, an Activity [29] of 67.8% and an MIC [30] greater than 500 µg/mL. It also gave an MIC90 [30] greater than 500 µg/mL.
